Patent publication US7253187B2, “Heterocyclic inhibitors of ERK2 and uses thereof” (Vertex Pharmaceuticals Incorporated, priority 2001, dated 2007)

What was measured:
ERK2 = ERK2 (Homo sapiens, UniProt P28482); experiment: ERK2 inhibition assay (spectrophotometric coupled-enzyme assay); format: biochemical; details: read-out: ERK2 Inhibitory Activity (Ki class D-F)
Procedure: The IC50 was evaluated from the rate data as a function of inhibitor concentration. […] The compound numbers correspond to the compound numbers in Table 1.

GSK-3β (AA 1–420) = target: T1, GSK-3β (AA 1–420) (Homo sapiens, UniProt P49841); experiment: GSK-3 inhibition assay (coupled enzyme system); format: biochemical; details: read-out: GSK3 Inhibitory Activity (Ki class)
T1 construct: GSK-3β (AA 1–420)
T1 sequence (P49841 whole entry, species assumed, the tested form may be a part): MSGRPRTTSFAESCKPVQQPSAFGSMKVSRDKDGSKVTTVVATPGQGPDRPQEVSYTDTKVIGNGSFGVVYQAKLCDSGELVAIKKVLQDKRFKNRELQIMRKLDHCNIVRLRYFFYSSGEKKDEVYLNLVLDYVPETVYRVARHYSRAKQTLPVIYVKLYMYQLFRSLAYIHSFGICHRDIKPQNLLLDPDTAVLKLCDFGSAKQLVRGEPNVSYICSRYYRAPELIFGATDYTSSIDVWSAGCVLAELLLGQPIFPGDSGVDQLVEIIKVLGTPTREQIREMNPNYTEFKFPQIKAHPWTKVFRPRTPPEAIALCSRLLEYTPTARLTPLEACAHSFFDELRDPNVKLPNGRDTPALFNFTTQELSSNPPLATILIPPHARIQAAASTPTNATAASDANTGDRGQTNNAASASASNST
Procedure: Final substrate concentrations in the assay were 20 μM ATP (Sigma Chemicals, St Louis, Mo.) and 300 μM peptide (HSSPHQS(PO3H2)EDEEE, American Peptide, Sunnyvale, Calif.). Reactions were carried out at 30° C. and 20 nM GSK-3β. Final concentrations of the components of the coupled enzyme system were 2.5 mM phosphoenolpyruvate, 300 μM NADH, 30 μg/ml pyruvate kinase and 10 μg/ml lactate dehydrogenase.
An assay stock buffer solution was prepared containing all of the reagents listed above with the exception of ATP and the test compound of interest. The assay stock buffer'solution (175 μl) was incubated in a 96 well plate with 5 μl of the test compound of interest at final concentrations spanning 0.002 μM to 30 μM at 30° C. for 10 min. […] The reaction was initiated by the addition of 20 μl of ATP (final concentration 20 μM). Rates of reaction were obtained using a Molecular Devices Spectramax plate reader (Sunnyvale, Calif.) over 10 min at 30° C. The Ki values were determined from the rate data as a function of inhibitor concentration.
The compound numbers correspond to the compound numbers in Table 1.

ERK2, sequence (P28482 whole entry): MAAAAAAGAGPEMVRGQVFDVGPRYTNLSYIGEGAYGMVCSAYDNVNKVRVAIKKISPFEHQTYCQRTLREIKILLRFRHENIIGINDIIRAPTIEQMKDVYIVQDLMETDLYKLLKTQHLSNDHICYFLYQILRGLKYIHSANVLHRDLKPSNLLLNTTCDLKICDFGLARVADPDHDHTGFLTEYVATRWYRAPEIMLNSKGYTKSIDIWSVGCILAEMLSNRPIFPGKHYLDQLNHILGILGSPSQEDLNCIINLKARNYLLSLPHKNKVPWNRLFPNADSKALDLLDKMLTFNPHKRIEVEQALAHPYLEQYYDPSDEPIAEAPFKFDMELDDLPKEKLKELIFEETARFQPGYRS

Ki (ERK2) [nM]	Ki (GSK-3β (AA 1–420)) [nM]	Compound
< 100	< 100	Cc1cnc(NCC2CCCO2)nc1-c1c[nH]c(C(=O)NC(CO)c2ccccc2)c1 (stereo not shown) [III-a-216, 4-{5-Methyl-2-[(tetrahydro-furan-2-ylmethyl)-amino]-pyrimidin-4-yl}-1H-pyrrole-2-carboxylic acid (2-hydroxy-1-phenyl-ethyl)-amide]
< 100	< 100	Cc1cnc(Nc2cccnc2)nc1-c1c[nH]c(C(=O)NC(CO)c2ccccc2)c1 (stereo not shown) [III-a-215, 4-[5-Methyl-2-(pyridin-3-ylamino)-pyrimidin-4-yl]-1H-pyrrole-2-carboxylic acid (2-hydroxy-1-phenyl-ethyl)-amide]
< 100	> 1000	CCNc1ncc(C)c(-c2c[nH]c(C(=O)NC(CO)c3cccc(C(F)(F)F)c3)c2)n1 (stereo not shown) [III-a-198, 4-(2-Ethylamino-5-methyl-pyrimidin-4-yl)-1H-pyrrole-2-carboxylic acid [2-hydroxy-1-(3-trifluoromethyl-phenyl)-ethyl]-amide]
100 to 1000	> 1000	CCNc1ncc(C)c(-c2c[nH]c(C(=O)NC(CO)c3cccnc3)c2)n1 (stereo not shown) [III-a-188, 4-(2-Ethylamino-5-methyl-pyrimidin-4-yl)-1H-pyrrole-2-carboxylic acid (2-hydroxy-1-pyridin-3-yl-ethyl)-amide]
< 100	100 to 1000	Cc1cnc(NOC(C)C)nc1-c1c[nH]c(C(=O)NC(CO)c2ccccc2)c1 (stereo not shown) [III-a-207, 4-(2-Isopropoxyamino-5-methyl-pyrimidin-4-yl)-1H-pyrrole-2-carboxylic acid (2-hydroxy-1-phenyl-ethyl)-amide]
< 100	< 100	Cc1cccc(C(CO)NC(=O)c2cc(-c3nc(Nc4cccc(N(C)C)c4)ncc3C)c[nH]2)c1 (stereo not shown) [III-a-208]
< 100	< 100	CONc1ncc(C)c(-c2c[nH]c(C(=O)NC(CO)c3ccccc3)c2)n1 (stereo not shown) [III-a-206, 4-(2-Methoxyamino-5-methyl-pyrimidin-4-yl)-1H-pyrrole-2-carboxylic acid (2-hydroxy-1-phenyl-ethyl)-amide]
< 100	100 to 1000	Cc1cnc(NC(CO)c2ccccc2)nc1-c1c[nH]c(C(=O)NC(CO)c2cccc(C(F)(F)F)c2)c1 (stereo not shown) [III-a-201, 4-[2-(2-Hydroxy-1-phenyl-ethylamino)-5-methyl-pyrimidin-4-yl]-1H-pyrrole-2-carboxylic acid [2-hydroxy-1-(3-trifluoromethyl-phenyl)-ethyl)-amide]
100 to 1000	100 to 1000	CCNc1ncc(C)c(-c2c[nH]c(C(=O)NC(CO)c3cc(F)cc(C(F)(F)F)c3)c2)n1 (stereo not shown) [III-a-190, 4-(2-Ethylamino-5-methyl-pyrimidin-4-yl)-1H-pyrrole-2-carboxylic acid [1-(3-fluoro-5-trifluoromethyl-phenyl)-2-hydroxy-ethyl]-amide]
	> 1000	CCNc1ncc(COC)c(-c2c[nH]c(C(=O)NC(CO)c3ccccc3)c2)n1 (stereo not shown) [III-a-187, 4-(2-Ethylamino-5-methoxymethyl-pyrimidin-4-yl)-1H-pyrrole-2-carboxylic acid (2-hydroxy-1-phenyl-ethyl)-amide]
< 100	< 100	Cc1cnc(Nc2cccc(F)c2)nc1-c1c[nH]c(C(=O)NC(CO)c2cccc(C(F)(F)F)c2)c1 (stereo not shown) [III-a-199, 4-[2-(3-Fluoro-phenylamino)-5-methyl-pyrimidin-4-yl]-1H-pyrrole-2-carboxylic acid [2-hydroxy-1-(3-trifluoromethyl-phenyl)-ethyl]-amide]
	< 100	Cc1ccccc1Nc1ncc(C)c(-c2c[nH]c(C(=O)NC(CO)c3cccc(Cl)c3)c2)n1 (stereo not shown) [III-a-224, 4-(5-Methyl-2-o-tolylamino-pyrimidin-4-yl)-1H-pyrrole-2-carboxylic acid [1-(3-chloro-phenyl)-2-hydroxy-ethyl]-amide]
< 100	100 to 1000	Cc1cnc(NC(CO)c2ccc(F)c(Cl)c2)nc1-c1c[nH]c(C(=O)NC(CO)c2ccccc2)c1 (stereo not shown) [III-a-230, 4-{2-[1-(3-Chloro-4-fluoro-phenyl)-2-hydroxy-ethylamino]-5-methyl-pyrimidin-4-yl}-1H-pyrrole-2-carboxylic acid (2-hydroxy-1-phenyl-ethyl)-amide]
< 100	100 to 1000	Cc1cnc(NC(CO)CC2CC2)nc1-c1c[nH]c(C(=O)NC(CO)c2ccccc2)c1 (stereo not shown) [III-a-193, 4-[2-(2-Cyclopropyl-1-hydroxymethyl-ethylamino)-5-methyl-pyrimidin-4-yl]-1H-pyrrole-2-carboxylic acid (2-hydroxy-1-phenyl-ethyl)-amide]
< 100	< 100	Cc1cccc(C(CO)NC(=O)c2cc(-c3nc(Nc4ccccc4C)ncc3C)c[nH]2)c1 (stereo not shown) [III-a-223, 4-(5-Methyl-2-o-tolylamino-pyrimidin-4-yl)-1H-pyrrole-2-carboxylic acid (2-hydroxy-1-m-tolyl-ethyl)-amide]
< 100	100 to 1000	Cc1cccc(C(CO)NC(=O)c2cc(-c3nc(Nc4cccc(C)c4C)ncc3C)c[nH]2)c1 (stereo not shown) [III-a-211, 4-[2-(2,3-Dimethyl-phenylamino)-5-methyl-pyrimidin-4-yl]-1H-pyrrole-2-carboxylic acid (2-hydroxy-1-m-tolyl-ethyl)-amide]
	< 100	Cc1cnc(NN2CCOCC2)nc1-c1c[nH]c(C(=O)NC(CO)c2ccccc2)c1 (stereo not shown) [III-a-228, 4-[5-Methyl-2-(morpholin-4-ylamino)-pyrimidin-4-yl]-1H-pyrrole-2-carboxylic acid (2-hydroxy-1-phenyl-ethyl)-amide]

Continued, compound first:

Compound	Ki (ERK2) [nM]	Ki (GSK-3β (AA 1–420)) [nM]
Cc1cnc(NOCCO)nc1-c1c[nH]c(C(=O)NC(CO)c2ccccc2)c1 (stereo not shown) [III-a-225, 4-[2-(2-Hydroxy-ethoxyamino)-5-methyl-pyrimidin-4-yl]-1H-pyrrole-2-carboxylic acid (2-hydroxy-1-phenyl-ethyl)-amide]	< 100	< 100
CNc1ncc(C)c(-c2c[nH]c(C(=O)NC(CO)c3ccc(F)c(Cl)c3)c2)n1 (stereo not shown) [III-a-134, 4-(5-Methyl-2-methylamino-pyrimidin-4-yl)-1H-pyrrole-2-carboxylic acid [1-(3-chloro-4-fluoro-phenyl)-2-hydroxy-ethyl]-amide]	< 100	> 1000
Cc1cnc(NCC(C)O)nc1-c1c[nH]c(C(=O)NC(CO)c2ccccc2)c1 (stereo not shown) [III-a-177, 4-[2-(2-Hydroxy-propylamino)-5-methyl-pyrimidin-4-yl]-1H-pyrrole-2-carboxylic acid (2-hydroxy-1-phenyl-ethyl)-amide]	< 100	100 to 1000
Cc1ccc(C(CO)NC(=O)c2cc(-c3nc(Nc4ccccc4)ncc3C)c[nH]2)cc1F (stereo not shown) [III-a-145, 4-(5-Methyl-2-phenylamino-pyrimidin-4-yl)-1H-pyrrole-2-carboxylic acid [1-(3-fluoro-4-methyl-phenyl)-2-hydroxy-ethyl]-amide]	< 100	< 100
CCC(CO)Nc1ncc(C)c(-c2c[nH]c(C(=O)NC(CO)c3cccc(Cl)c3)c2)n1 (stereo not shown) [III-a-232, 4-[2-(1-Hydroxymethyl-propylamino)-5-methyl-pyrimidin-4-yl]-1H-pyrrole-2-carboxylic acid (1-(3-chloro-phenyl)-2-hydroxy-ethyl]-amide]	< 100	100 to 1000
Cc1cnc(NCCO)nc1-c1c[nH]c(C(=O)NC(CO)c2ccccc2)c1 (stereo not shown) [III-a-175, 4-[2-(2-Hydroxy-ethylamino)-5-methyl-pyrimidin-4-yl]-1H-pyrrole-2-carboxylic acid (2-hydroxy-1-phenyl-ethyl)-amide]	< 100	100 to 1000
Cc1cnc(NC2CCCCC2O)nc1-c1c[nH]c(C(=O)NC(CO)c2ccccc2)c1 (stereo not shown) [III-a-179, 4-[2-(2-Hydroxy-cyclohexylamino)-5-methyl-pyrimidin-4-yl]-1H-pyrrole-2-carboxylic acid (2-hydroxy-1-phenyl-ethyl)-amide]	< 100	< 100
Cc1ccc(C(CO)NC(=O)c2cc(-c3nc(Nc4cccc(F)c4)ncc3C)c[nH]2)cc1F (stereo not shown) [III-a-147, 4-[2-(3-Fluoro-phenylamino)-5-methyl-pyrimidin-4-yl]-1H-pyrrole-2-carboxylic acid [1-(3-fluoro-4-methyl-phenyl)-2-hydroxy-ethyl]-amide]	< 100	< 100
Cc1cnc(NC(C)C)nc1-c1c[nH]c(C(=O)NC(CO)c2ccccc2)c1 (stereo not shown) [III-a-153, 4-(2-Isopropylamino-5-methyl-pyrimidin-4-yl)-1H-pyrrole-2-carboxylic acid (2-hydroxy-1-phenyl-ethyl)-amide]	< 100	< 100
Cc1cnc(NCC(C)C)nc1-c1c[nH]c(C(=O)NC(CO)c2ccccc2)c1 (stereo not shown) [III-a-158, 4-(2-Isobutylamino-5-methyl-pyrimidin-4-yl)-1H-pyrrole-2-carboxylic acid (2-hydroxy-1-phenyl-ethyl)-amide]	< 100	< 100
CCN(C(=O)c1cc(-c2ccnc(N)n2)c[nH]1)C(C)C(O)c1ccccc1 (stereo not shown) [III-a-181, 4-(2-Amino-pyrimidin-4-yl)-1H-pyrrole-2-carboxylic acid (2-hydroxy-1-methyl-2-phenyl-ethyl)-ethyl-amide]		> 1000
